Test systems include HL-60; HOP-92; HCT-15; SK-OV-3; UACC-62; EKVX; MDA-MB-435; U-251; OVCAR-8; NCI-H522; ACHN; SNB-75; SN12C; COLO 205; SF-268; CAKI-1; Malme-3M; NCI-H23; SNB-19; PC-3.
Common to all, as to assay: NCI-60 cell line screen, 48 h

Structures are written as SMILES.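 Assay format: 96-well plates, 48-hour exposure. The concentration for 50% growth inhibition is given as GI50.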 Activity calls are given as the source filed them. Rule as the data show it: active = GI50 up to about 1.1 µM and inactive = higher.

In the case of `C=C(C)CCC1CC=[N+]([O-])OC1C(C)(C)C` (stereo not drawn), the GI50 in the experiment on HL-60 is 2.65 µM (inactive); with HOP-92, > 100 µM (inactive); with HCT-15 it was 26.1 µM; in the experiment with SK-OV-3 it was > 100 µM (inactive); with UACC-62 it was 36.3 µM (inactive); with EKVX, 68.2 µM (inactive). For the same compound, the GI50 in the experiment with MDA-MB-435 was 16.1 µM (inactive); with U-251 it was 46.9 µM (inactive); in the experiment on OVCAR-8, 66.5 µM (inactive); with NCI-H522, 24.2 µM (inactive); in the experiment with ACHN it was 68.9 µM (inactive); in the experiment with SNB-75, 31.3 µM (inactive). Besides, the GI50 is 49.4 µM (inactive) in the experiment with SN12C, 40.1 µM (inactive) in the experiment on COLO 205, 58.9 µM (inactive) with SF-268 and 26.2 µM (inactive) in the experiment on CAKI-1.
As to `CCCC/C(C)=N/NC(N)=S`, the GI50 is 14.5 µM (inactive) in the experiment with HL-60; > 100 µM (inactive) in the experiment with HOP-92; greater than 100 µM in the experiment with HCT-15; > 100 µM (inactive) with SK-OV-3; > 100 µM (inactive) in the experiment on UACC-62; > 100 µM (inactive) in the experiment with EKVX. Further, the GI50 with Malme-3M, in the experiment on U-251, in the experiment on OVCAR-8, in the experiment with NCI-H23, in the experiment on NCI-H522 and in the experiment on ACHN was > 100 µM (inactive) each time. Besides, the GI50 in the experiment with SNB-19, in the experiment on SNB-75, in the experiment on SN12C, with COLO 205, in the experiment on SF-268 and in the experiment on CAKI-1 was > 100 µM (inactive) throughout.
`Nc1ncnc2c1nnn2C1C=CC(CP(=O)(O)O)C1` (stereo not drawn): the GI50 in the experiment on HL-60 is > 100 µM (inactive); with HCT-15 it was greater than 100 µM; in the experiment with SK-OV-3, > 100 µM (inactive); with UACC-62, > 100 µM (inactive); with EKVX, > 100 µM (inactive); in the experiment on Malme-3M it was > 100 µM (inactive). Further, the GI50 with MDA-MB-435 was > 10 µM (inactive); with U-251, > 100 µM (inactive); in the experiment with OVCAR-8 it was > 100 µM (inactive); in the experiment on NCI-H23, > 100 µM (inactive); in the experiment with PC-3, > 100 µM (inactive); in the experiment with ACHN, > 100 µM (inactive). The GI50 in the experiment on SNB-19, with SN12C, with COLO 205 and with SF-268 was > 100 µM (inactive) throughout.
Regarding `CC1(C)OC(=O)C(c2ccsc2)C(=O)O1`, the GI50 in the experiment with HL-60 is > 100 µM (inactive); in the experiment on HOP-92, > 100 µM (inactive); in the experiment with HCT-15, greater than 100 µM; in the experiment with SK-OV-3, > 100 µM (inactive); in the experiment with UACC-62 it was > 100 µM (inactive); in the experiment on EKVX it was > 100 µM (inactive). In addition, the GI50 in the experiment on Malme-3M, with U-251, in the experiment on OVCAR-8, in the experiment on NCI-H23, in the experiment on NCI-H522 and with ACHN was > 100 µM (inactive) throughout. Also, the GI50 in the experiment with SNB-19, with SNB-75, in the experiment with SN12C, in the experiment on COLO 205, in the experiment on SF-268 and with CAKI-1 was > 100 µM (inactive) each time.
Take `COC(=O)CP1(=O)OC2C(C3CCC2(C)C3(C)C)N1c1cc(C(F)(F)F)cc(C(F)(F)F)c1` (stereo not drawn): the GI50 with HCT-15 was 24.4 µM; with SK-OV-3 it was 33.4 µM (inactive); in the experiment with UACC-62, > 100 µM (inactive); with EKVX, 30.5 µM (inactive); with Malme-3M, 17.3 µM (inactive); in the experiment on MDA-MB-435 it was 22.1 µM (inactive). Moreover, the GI50 in the experiment on U-251 was 26.1 µM (inactive); in the experiment on OVCAR-8, 36.1 µM (inactive); in the experiment with NCI-H23, 26.6 µM (inactive); in the experiment on PC-3 it was 19.9 µM (inactive); with ACHN, > 100 µM (inactive); in the experiment on SNB-19, 32.7 µM (inactive). For the same compound, the GI50 in the experiment with SNB-75 is 15.7 µM (inactive); with COLO 205, 24 µM (inactive); with SF-268, 23 µM (inactive); with CAKI-1, 24.9 µM (inactive).
On to `CN(Cc1cnc2c(N)nc(N)nc2n1)c1ccc(Cl)cc1`, for which the GI50 in the experiment on HL-60 is > 100 µM (inactive); in the experiment on HCT-15, 71.6 µM; in the experiment with SK-OV-3, 26.2 µM (inactive); in the experiment with UACC-62 it was 24.4 µM (inactive); in the experiment with EKVX, > 100 µM (inactive); in the experiment on Malme-3M it was > 100 µM (inactive). The GI50 in the experiment on MDA-MB-435 was > 100 µM (inactive); in the experiment on U-251, > 100 µM (inactive); in the experiment on OVCAR-8 it was 21.5 µM (inactive); in the experiment on NCI-H23 it was 34 µM (inactive); in the experiment on PC-3, 65.5 µM (inactive); in the experiment with ACHN, 26.6 µM (inactive). Also, the GI50 is 33.3 µM (inactive) in the experiment with SNB-19; 12.5 µM (inactive) in the experiment with SNB-75; > 100 µM (inactive) in the experiment with SN12C; > 100 µM (inactive) in the experiment with COLO 205; 33.6 µM (inactive) with SF-268; > 100 µM (inactive) with CAKI-1.
Regarding `O=C(CCC1OCCO1)Nc1cc(NCc2ccccc2)ccc1OCc1ccccc1`, the GI50 is 38.5 µM (inactive) in the experiment on HL-60; 17.8 µM (inactive) in the experiment with HOP-92; 35.1 µM in the experiment with HCT-15; 68.5 µM (inactive) in the experiment on SK-OV-3; 28.1 µM (inactive) with UACC-62; 21.2 µM (inactive) in the experiment on EKVX. Further, the GI50 was 20.6 µM (inactive) in the experiment on Malme-3M; 23.6 µM (inactive) in the experiment with MDA-MB-435; 37.1 µM (inactive) in the experiment on U-251; 18.9 µM (inactive) with OVCAR-8; 31.7 µM (inactive) in the experiment with NCI-H23; 23.7 µM (inactive) in the experiment on NCI-H522. Further, the GI50 is 33.5 µM (inactive) in the experiment on ACHN; 40.3 µM (inactive) in the experiment with SNB-19; 32.5 µM (inactive) in the experiment with SNB-75; 46.8 µM (inactive) in the experiment with SN12C; 22.3 µM (inactive) in the experiment with COLO 205; 63.8 µM (inactive) in the experiment on SF-268. Further, the GI50 in the experiment with CAKI-1 is 20.7 µM (inactive).
Turning to `O=C(Nc1ccc(C(F)(F)F)cc1[N+](=O)[O-])C(=O)Nn1c(S)nc2ccccc2c1=O`, the GI50 is > 100 µM (inactive) in the experiment on HL-60; > 100 µM (inactive) in the experiment with HOP-92; greater than 100 µM with HCT-15; > 100 µM (inactive) in the experiment on SK-OV-3; > 100 µM (inactive) in the experiment on UACC-62; 33.3 µM (inactive) in the experiment with EKVX. In addition, the GI50 with Malme-3M, in the experiment on U-251, in the experiment with OVCAR-8, in the experiment on NCI-H23, with NCI-H522 and in the experiment on ACHN was > 100 µM (inactive) each time. The GI50 with SNB-19, in the experiment on SNB-75, in the experiment on SN12C, in the experiment with COLO 205, in the experiment on SF-268 and in the experiment on CAKI-1 was > 100 µM (inactive) in each case.
With `CC(=O)/C=C\C(=O)NNS(=O)(=O)c1ccc(C)cc1`, the GI50 with HL-60 is > 100 µM (inactive); in the experiment with HOP-92, > 100 µM (inactive); in the experiment with HCT-15, greater than 100 µM; in the experiment with SK-OV-3, > 100 µM (inactive); in the experiment with UACC-62, > 100 µM (inactive); in the experiment with EKVX, > 100 µM (inactive). Also, the GI50 in the experiment on Malme-3M, in the experiment with U-251, in the experiment on OVCAR-8, in the experiment on NCI-H23, in the experiment with NCI-H522 and in the experiment on ACHN was > 100 µM (inactive) in each case. Also, the GI50 with SNB-19, with SNB-75, with SN12C, with COLO 205, in the experiment on SF-268 and in the experiment with CAKI-1 was > 100 µM (inactive) in each case.
For the compound `Cc1c(N)nc(C(CC(N)=O)NCC(N)C(N)=O)nc1C(=O)NC(C(=O)NC(C)C(O)C(C)C(=O)NC(C(=O)NCCc1nc(-c2nc(C(=O)NCCCNCCCCN)cs2)cs1)C(C)O)C(OC1OC(CO)C(O)C(O)C1OC1OC(CO)C(O)C(OC(N)=O)C1O)c1c[nH]cn1` (stereo not drawn), the GI50 in the experiment on HL-60 was > 10 µM (inactive); in the experiment on HOP-92 it was 0.0724 µM (active); with HCT-15, greater than 5.64 µM; in the experiment with SK-OV-3, > 10 µM (inactive); with UACC-62 it was 2.71 µM (inactive); with EKVX, > 10 µM (inactive). Also, the GI50 with Malme-3M is 2.07 µM (inactive); with U-251, > 10 µM (inactive); in the experiment with OVCAR-8, > 10 µM (inactive); in the experiment with NCI-H23 it was 1.79 µM (inactive); with NCI-H522 it was 2.1 µM (inactive); with ACHN, 0.00622 µM (active). The GI50 with SNB-19 is > 10 µM (inactive); in the experiment with SNB-75, 0.202 µM (active); in the experiment on SN12C, 3.56 µM (inactive); in the experiment on COLO 205, > 10 µM (inactive); in the experiment with SF-268, 1.18 µM (inactive); in the experiment with CAKI-1 it was 0.00178 µM (active).
For `CCC/C(=N\NC(=O)c1cc2ccccc2cc1O)C(CC)C(=O)CCC(=O)N(Cc1ccccc1)Cc1ccccc1` (stereo not drawn), the GI50 with HL-60 was 13 µM (inactive); in the experiment with HOP-92, 33.3 µM (inactive); with HCT-15, 38.4 µM; in the experiment with SK-OV-3, > 100 µM (inactive); in the experiment on UACC-62, 11.2 µM (inactive); with EKVX it was 32 µM (inactive). In addition, the GI50 with Malme-3M was 50.1 µM (inactive); in the experiment on U-251 it was 57 µM (inactive); in the experiment on OVCAR-8, 49.9 µM (inactive); in the experiment on NCI-H23, 76.2 µM (inactive); in the experiment on NCI-H522, 39.1 µM (inactive); with ACHN, 33.5 µM (inactive). Further, the GI50 is 27.7 µM (inactive) in the experiment with SNB-19; 9.73 µM (inactive) in the experiment on SNB-75; 63.2 µM (inactive) with SN12C; 28.5 µM (inactive) in the experiment with COLO 205; 19.7 µM (inactive) in the experiment on SF-268; 46 µM (inactive) in the experiment with CAKI-1.

The values are drawn from ChEMBL document CHEMBL1201862, “PubChem BioAssay data set” (2004).
